Patent US20100069345A1, “Lanthanide-porphyrin complexes as anti-tumor agents” (priority 2005, published 2010)

Test system: multi-drug resistant liver tumor cells (QGY-TR50)
Test: Murine xenograft tumor model
Assay type: in vivo, mouse
Settings: 10 mg/kg/day i.p. daily for 22 days, nude mice, vs control group
Procedure: The murine model for anti-tumor evaluation in vivo was the male BALB/c-nu/nu mouse originated from Charles River Laboratories, Inc. and the colony was maintained in the Laboratory Animal Unit, The University of Hong Kong. Mice were grafted in the left flank with QGY-TR50 cells subcutaneously. All of the experiments were carried out according to the guidelines of the Committee on the Use of Live Animals in Teaching and Research, The University of Hong Kong.
The anti-tumor effect of complex 1 was examined in the xenograft mice model. A complex 1 suspension was prepared by dissolving the complex in 1% EtOH and mixed with a solution containing 0.2% sodium carboxymethyl cellulose (Sigma) and 0.1% Tween 80 (Sigma) in PBS. A dose tolerance test was conducted to determine the appropriate dose ranges for complex 1. […] The dimensions of the tumors were measured twice weekly with calipers, and tumor volumes were estimated using two-dimensional measurements of length and width and calculated with the formula [l×(w)^2]×0.52 (l, length; w, width) according to described procedures (M. Guba, P. von Breitenbuch, M. Steinbauer, G. Koehl, S. Flegel, M. Hornung, C. J. Bruns, C. Zuelke, S. Farkas, M. Anthuber, K. W. Jauch, E. K. Geissler, Nat Med 2002, 8, 128-135). The weights of the mice were also recorded twice weekly throughout the course of treatment. […]

With [Yb2(OEP)2](μ-OH)2 [Complex 1] the “inhibition of the tumor volume” value was 40%.
